Results published in a melting point compilation (Tetko et al.; mined from patent text by program, amines drawn as free bases though some values may be those of a salt).

| melting point [°C] | Structure (SMILES) |
| --- | --- |
| 193 to 196 | CCCc1cc(=O)[nH]c2cc(OC)cc(OC)c12 |
| 60 to 61 | COC(=O)CNC(=O)CC(O)CBr (stereo not drawn) |
| 153 to 155 | COc1c(N2CC[C@@H](C3(NCCO)CC3)C2)c(F)cc2c(=O)c(C(=O)O)cn([C@@H]3C[C@@H]3F)c12 |
| 157 to 158 | COC(=O)CCC(C)(C)c1ccc(OC)c(NC(=O)C[C@H]2O[C@H](c3cccc(OC)c3OC)c3cc(Cl)ccc3N(CC(C)(C)COC(C)=O)C2=O)c1 |
| 90.8 to 92.6 | CCC(C)COC(=O)C1(OC(=O)c2ccc(O)cc2)C=CC=CC1 (stereo not drawn) |
| > 300 | CN1CCN(C2=Nc3ccc(Cl)cc3S(=O)(=O)N2)CC1 |
| 100 to 102 | CC(C)=CCOc1ccc(C(=O)C=Cc2cccs2)c(O)c1 |
| 54 | NCCc1ncccc1C(N)=O |
| 93 to 95 | COc1ccc(C2CCN(C(=O)/C=C/c3ccccc3)CC2)cc1OC1CCCC1 |
| 150 to 152 | COC(=O)c1c([N+](=O)[O-])cccc1[N+](=O)[O-] |
| 65 to 67 | CC(=O)c1cccc(Oc2ncc(C(F)(F)F)cc2F)c1 |
| 90 to 92 | CC(=O)c1csc2ccc(F)cc12 |
| 79.1 to 79.2 | CC1OC(=O)N2c3ccc(OCCCC(F)(F)F)cc3CCC12 (stereo not drawn) |
| 112 to 113 | CC(C)(C)OC(=O)N(CC#N)CCN(CC#N)C(=O)OC(C)(C)C |
| 289 to 291 | O=c1[nH]c(=S)n2c3c1cnn3C(c1ccccc1)=CC2 |
| > 300 | O=c1[nH]c2cc(Cl)ccc2c(O)c1-c1cccc(Cl)c1 |
| 127 to 137 | CC(C)c1ccc(C(=O)C(c2ccccc2)C2CCCCC2)c(C(C)C)c1OS(N)(=O)=O (stereo not drawn) |
| 186 to 187 | COc1ccc(NC(=O)c2cc(-c3ccc(F)cc3F)ccc2O)cc1OC |
| 89 to 91 | Cc1cc(SCc2ccnc3c2nc(-c2ccc(C(F)(F)F)cc2)n3C)ccc1CCC(=O)O |
| 112 to 115 | CCOC(=O)C[C@@H](NC(=O)/C=C/S(=O)(=O)c1ccccc1)C(=O)OCC |
| 114 to 118 | CN1C(=O)N(CC(COc2ccc(-c3ccc(OC(F)(F)F)cc3)cc2)N(O)C=O)C(=O)C1(C)C (stereo not drawn) |
| 156 | CCCOC(=O)C1=C(C)NC(C)=C(C(=O)OCC)C1c1ccccc1C#N (stereo not drawn) |

| melting point [°C] | Structure (SMILES) |
| --- | --- |
| 120 to 121 | CSc1nc(Cl)c2ncccc2n1 |
| 200 to 201 | COc1ccc(-c2cccc(-c3nc(=O)c4ccccc4s3)n2)cc1 |
| > 250 | O=c1[nH]c2ccc(C(F)(F)F)cc2c2c1c(=O)oc1ccc(Cl)cc12 |
| 114 to 118 | COc1ccc(/C=C/c2c(Cl)cncc2Cl)c2c1OC(C)(C)C2 |
| 165 to 168 | CCCCn1c(=O)[nH]c2ccc(OC)c(OC)c2c1=N |
| 70 to 72.5 | COC1(C)CCc2c(C)c(OCc3ccccc3)c(C)c(C)c2O1 (stereo not drawn) |
| 136 to 137 | CN(C[C@@H]1C[C@H]1COc1ccc(C(=O)c2ccc(Br)cc2)cc1)C1CC1 (racemic) |
| 188 to 190 | COc1ccc(Cl)cc1C(=O)Nc1ccc(CCC(=O)O)cc1 |
| 210 | Cc1ccc(S(=O)(=O)NC(=O)OCCc2ccc(-n3c(CCC(=O)N4CCCCC4)nc4cc(C(F)(F)F)c(Cl)cc43)cc2)cc1 |
| 235 to 240 | CC(=O)Nc1ccc(CCC2CSC(=O)NN2)cc1 (stereo not drawn) |
| 48 | CCOC(=O)c1c(N)c(Cl)cn1C |
| 65 to 80 | CS(=O)(=O)c1ccc(-c2cnn(-c3ccc(F)cc3)c(=O)c2COc2ccc(F)cc2)cc1 |
| 140 to 144 | CCN(CC)S(=O)(=O)c1ccc(C#CC(C)(O)C(F)(F)F)cc1 (stereo not drawn) |
| 98 to 101 | COC(=O)c1c([N+](=O)[O-])cccc1S(=O)(=O)N(C)CCO |
| 205 | O=C(O)c1cn(CCCO)c(=O)c2ccccc12 |
| 173 to 174 | COc1ccc(N2CN(CC(=O)O)C(=O)C23CCN(C(=O)OC(C)(C)C)CC3)cc1 |
| 158 to 160 | O=C(NC1=Cc2cncn2CN=C1)c1ccccc1 |
| 190 to 192 | OC(Cn1cncn1)(Cn1cncc1C(F)(F)F)c1ccc(Cl)cc1Cl (stereo not drawn) |
| 137 to 139 | CC(=N)c1ccccc1O |
| 92 to 94 | CC(=O)SCC(Cc1ccccc1)NC(=O)OC(C)(C)C (stereo not drawn) |
| 280 | NS(=O)(=O)c1ccc(-c2cn(-c3nc(-c4cccc(Cl)c4)cc(C(F)(F)F)n3)cn2)s1 |

More lines, now with the values behind:

| Structure (SMILES) | melting point [°C] |
| --- | --- |
| CC(=O)Nc1cccc(CCCCC(=O)O)c1 | 137 to 138 |
| Cn1c(=O)c2ccccc2n(CCCCCl)c1=O | 99 to 100 |
| CCc1nc(NC(C)C)c([N+](=O)[O-])c(SC2CCCCC2)n1 | 69 to 71 |
| CCn1cc(C(=O)O)c(=O)c2ccc(C3CCCCC3)cc21 | 222 to 224 |
| COc1ccc(NC(=O)c2cnc3ccccc3c2O)cc1 | > 260 |
| COCCN(C)Cc1c(-c2ccc(NC(=O)NOC)cc2)sc2c1c(=O)n(-c1ccccc1)c(=O)n2Cc1c(F)cccc1F | 161 to 163 |
| COc1ccc2c(Cc3c(Cl)cncc3Cl)nnc(CN3CCOCC3)c2c1 | 203 to 206 |
| C=CCCCS(=O)(=O)CCCC(=O)O | 104 to 107 |
| O=C(Nc1ccc2ccc(Cl)nc2n1)c1cncs1 | 292 |
| N#CCc1cc(N)c(F)cc1Cl | 85 to 86 |
| O=C1CCCc2cc(S(=O)(=O)c3ccccc3)ccc21 | 121 |
| CCCCCCCCSC(=O)CS(=O)(=O)Nc1c(C(C)C)cccc1C(C)C | 51 to 52 |
| CCOC(=O)C(=CNc1ccc(F)c(N2CCN(C(=O)OCC)CC2)n1)C(=O)OCC | 144 to 145 |
| COc1ccc(N2C=Cc3cc(S(N)(=O)=O)sc3S2(=O)=O)cc1 | 90 to 92 |
| CN(O)C(=O)C=Cc1ccc(Cl)c(O)c1 | 196 |
| O=C(O)c1cn(C2CC2)c2c(F)c(N3CCNCC3)c(F)cc2c1=O | > 270 |
| Cn1nc(N)nc1NCCCOc1cccc2c(N3CCCCC3)nccc12 | 173 |
| CN1CCN(c2cc([N+](=O)[O-])ccc2Cl)CC1 | 63 to 64 |
| CCOC(=O)c1ccc(C=C(C)c2cc3c(cc2C)C(C)(C)CCC3(C)C)cc1 | 109 to 110 |
| COc1ccccc1NC(=S)c1ccc(C)cc1 | 91 to 93 |
| N#Cc1ncc(F)cc1O | 201 |
| O=C(O)Cc1cc2c(c(C(=O)O)c1)NC(C(F)(F)F)CC2 (stereo not drawn) | 195 to 196 |
| CC(c1ccc(F)cc1)n1c(NC2CCN(CCc3ccccc3)CC2)nc2ccccc21 (stereo not drawn) | 162 |
| Cc1c(NC(=O)c2ccc(-c3ccccc3F)cc2F)ccc2cc(CN3CCCC3)cnc12 | 159 to 160 |
| Oc1cccc(-c2c3ccccc3c(Br)c3sc4ccccc4c23)c1 | 110 to 111 |
| CCc1c(Oc2ccc(C(F)(F)F)cc2[N+](=O)[O-])n[nH]c1C | 92 to 93 |
| CC(C)C1CC(=O)C(C(=O)NS(=O)(=O)c2ccc(Cl)cc2)C(=O)C1 (stereo not drawn) | 100 to 102 |
| CN(C)S(=O)(=O)c1ccc(COc2cccc3c2CN(C2CCC(=O)NC2=O)C3=O)cc1 (stereo not drawn) | 261 to 263 |
| Cc1cc(-n2cncn2)c2cc(Cl)cc(Cl)c2n1 | 220 to 222 |
| CC(=O)OCOC(=O)COC(=C1C(=O)N(C(N)=O)c2cc(Cl)c(F)cc21)c1cccs1 | 176 to 177 |
